Where two headings read alike, the source gives them in different places.
Columns and labels:
adjuvant arthritis = test: Inhibitory activity of adjuvant arthritis; assay type: in vivo, male Lewis rats; details: for Increment of the volume of hind paw after 21 days of injection (I1): at beginning of administration; for Increment of the volume of hind paw after 36 days of injection (I2) / Rate of inhibiting adjuvant arthritis: 14 days
Protocol: The activity of the present compound in inhibiting the adjuvant arthritis was examined while using groups of male Lewis rats of 8 weeks after birth and according to the method of Fujihira et al. (refer to "OYO YAKURI", 5(2), 169, (1971)) as follows.
Groups of 8 rats were used, and to each rat of whole groups under anesthesia by ether, a Freund's complete adjuvant dissolved in mineral oil at a concentration of 0.6 mg/0.1 ml was injected intradermally into the trail thereof.
After 3 weeks of the injection, to each rat of a group an aqueous dispersion of one of the present compounds shown in Table 4 in an aqueous 0.3% solution of CMC was orally administered every day for 14 days, and to each of the control group, the aqueous 0.3% solution of CMC was administered in a similar manner, each rat of the positive control group being treated with the similar oral administration of prednisolone in the aqueous 0.3% solution of CMC. The volume of the hind paw of each rat was measured on the day of starting the administration and on the next day after finishing the administration.
The results of the test are shown in Table 4 as the increment of the volume of the hind paw and the rate of inhibiting the increase of the volume thereof.
The increment of the volume of the hind paw at the beginning of the administration, namely after 21 days of the injection of the complete adjuvant (I1), and the increment of that after the finishing of the injection, namely after 36 days of the injection of the complete adjuvant (I2) are respectively as follows.
wherein V0 is the volume of the hind paw just before the injection, V1 is that after 21 days of the injection and V2 is that after 36 days of the injection.
The rate of inhibiting the increase of the volume of the hind paw, namely the activity of treating the adjuvant arthritis is obtained by the following formula: [formula]

granuloma formation = assay type: in vivo, male Donryu rats; details: 10 days
Protocol: The activity of the present compounds in inhibiting the granuloma formation was examined according to the method of Fujimura et al. (refer to "OYO YAKURI", 19(3), 329(1981)) while using male Donryu rats of 5 weeks after birth as follows.
(§1) After burying a paper disk of 13 mm in diameter and 0.26 mm in thickness immersed in an aqueous 2% solution of carboxymethylcellulose (hereinafter referred to as CMC) containing both dihydroxystreptomycin and penicillin (both of 10^6 unit at a rate of 0.1 mg/ml) into the back of each rat under anesthesia by ether, the rats were divided into four groups. To rats of the first group, an aqueous 0.3% solution of CMC was orally administered every day for 10 days, to rat of the second group, an aqueous dispersion of one of the present compounds shown in Table 3 in an aqueous 0.3% solution of CMC was orally administered every day for 10 days and to rat of the third and fourth groups, an aqueous 0.3% solution of CMC containing either indomethacin or prednisolone was orally administered every day for 10 days.
The rate of inhibiting the granuloma formation was obtained from the following formula: [formula] wherein T is the average weight of granuloma in the test group and C is the average weight of granuloma in the control group.

[1] = tested on: migration of polymorphonuclear leukocytes; test: Inhibition of migration of polymorphonuclear leukocytes, in vivo pouch-CMC method; parameters: species or system male Donryu rats
Protocol: The activity of each of the present compounds in in vivo inhibiting the migration of polymorphonuclear leukocytes was examined by the pouch-CMC method presented by Ishikawa (refer to J. Pharmaceut. Soc., Japan, 88, 1472, 1968) using male Donryu rats.
After cutting the hairs on the back of each male Donryu rat at a 5 cm square, 5 ml of air were subcutaneously injected into the hair-cut position, and after 24 hours of the injection, 5 ml of a 0.2% solution of sodium carboxymethylcellulose in a saline was injected into the pouch made by the injected air.
After dividing the rats into 3 groups, an aqueous 0.2% solution of carboxymethylcellulose was orally administered to each rat of the first group at a rate of 1 ml/100 g body weight (as control), and each of the present compounds (Compounds Nos. 1, 2 and 4) was orally administered to each rat of the second group after suspending the compound in an aqueous 0.2% solution of carboxymethylcellulose. Each rat of the third group is orally administered with an aqueous solution of indomethacin as positive control.
After 3 and 6 hours of the injection, the exudates in the pouch were collected from each rat, and the number of polymorphonuclear leukocytes (hereinafter referred to as PMN) exudated was counted and, the results are shown in Table 2.

platelet aggregation = test: Inhibitory activity of platelet aggregation (sodium arachidonate induced, platelet-rich plasma); assay type: cell-based; details: Oryctolagus cuniculus, rabbit plasma, sodium arachidonate 400 μM, read-out: IC100 (concentration necessary for inhibiting platelet aggregation perfectly)
Protocol: After collecting blood specimen from the auricular vein of a male rabbit of an ordinary race in the presence of citrate, the thus collected blood was subjected to centrifugation to obtain a platelet-rich plasma (PRP) and a platelet-poor plasma (PPP) therefrom. The plasma containing 300,000 platelets/μl was prepared by diluting the PRP with the PPP, and divided equally into two portions.
Into the first portion of the thus obtained plasma mixture, as control, dimethylsulfoxide was added, and then, an aqueous solution of sodium arachidonate as an aggregation agent prepared by dissolving thereof into a saline solution was added to the resultant mixture to adjust the final concentration of the arachidonate therein to 400 μM.
On the other hand, into the second portion thereof, a solution of each of the present compounds shown in Table 1 in dimethylsulfoxide was added, and then, the above-mentioned aqueous solution of sodium arachidonate was added to the resultant mixture.
The platelet aggregation reactions were measured with the aid of a platelet aggregation tracer (model PAT-4A, made by NIKO Bioscience Co., Ltd.) and its IC100 values (the concentration of an agent necessary for inhibiting platelet aggregation perfectly) are shown in Table 1.

[2] = parameters: species or system male Donryu rats; details: rat, in vivo
Protocol: as §1

| Compound | Rate of inhibition of granuloma formation (granuloma formation; 25 mg/kg/day oral) | Weight of dried granuloma (granuloma formation; 25 mg/kg/day oral) | Rate of inhibition of granuloma formation (granuloma formation; 50 mg/kg/day oral) | Weight of dried granuloma (granuloma formation; 50 mg/kg/day oral) | Inhibition rate of exudation of PMN ([1]; after 3 hr, 50 mg/kg oral) | Number of PMN in exudated liquid ([1]; after 3 hr, 50 mg/kg oral) | Inhibition rate of exudation of PMN ([1]; after 6 hr, 50 mg/kg oral) | Number of PMN in exudated liquid ([1]; after 6 hr, 50 mg/kg oral) | IC100 (platelet aggregation) | other results |
| --- | --- | --- | --- | --- | --- | --- | --- | --- | --- | --- |
| CCCCCCCCNC(=O)c1ccc(O)c(O)c1 [Compound No. 1, N-(n-octyl)-3,4-dihydroxybenzamide] | 53% | 135 mg | 72% | 80 mg | 51.0% | 2.4 (number/mm^3) × 10^3 | 22.9% | 16.8 (number/mm^3) × 10^3 | < 18 µM | Increment of the volume of hind paw after 21 days of injection (I1) (adjuvant arthritis; 25 mg/kg/day group): 1.29 mL; Increment of the volume of hind paw after 36 days of injection (I2) (adjuvant arthritis; 25 mg/kg/day oral): 0.65 mL; Rate of inhibiting adjuvant arthritis (adjuvant arthritis; 25 mg/kg/day oral): 50%; Increment of the volume of hind paw after 21 days of injection (I1) (adjuvant arthritis; 50 mg/kg/day group): 1.28 mL; Increment of the volume of hind paw after 36 days of injection (I2) (adjuvant arthritis; 50 mg/kg/day oral): 0.59 mL; Rate of inhibiting adjuvant arthritis (adjuvant arthritis; 50 mg/kg/day oral): 54% |
| O=C(Nc1ccccn1)c1ccc(O)c(O)c1 [Compound No. 2, N--(2-pyridyl)-3,4-dihydroxybenzamide] | 64% | 98 mg | 76% | 69 mg | 53.1% | 2.3 (number/mm^3) × 10^3 | 37.6% | 13.6 (number/mm^3) × 10^3 | 25 µM | Increment of the volume of hind paw after 21 days of injection (I1) (adjuvant arthritis; 25 mg/kg/day group): 1.32 mL; Increment of the volume of hind paw after 36 days of injection (I2) (adjuvant arthritis; 25 mg/kg/day oral): 0.51 mL; Rate of inhibiting adjuvant arthritis (adjuvant arthritis; 25 mg/kg/day oral): 61%; Increment of the volume of hind paw after 21 days of injection (I1) (adjuvant arthritis; 50 mg/kg/day group): 1.30 mL; Increment of the volume of hind paw after 36 days of injection (I2) (adjuvant arthritis; 50 mg/kg/day oral): 0.53 mL; Rate of inhibiting adjuvant arthritis (adjuvant arthritis; 50 mg/kg/day oral): 59% |
| CCCCNC(=O)c1ccc(O)c(O)c1 [compound 3, N--(n-butyl)-3,4-dihydroxybenzamide] | – | – | – | – | – | – | – | – | 45 µM | – |
| O=C(c1ccc(O)c(O)c1)N1CCCCC1 [compound 4, 3,4-dihydroxybenzpiperidide] | 49% | 146 mg | 65% | 101 mg | 46.9% | 2.6 (number/mm^3) × 10^3 | 25.2% | 16.3 (number/mm^3) × 10^3 | 65 µM | – |
| CCCCCCCCCCCCNC(=O)c1ccc(O)c(O)c1 [compound 5, N--(n-dodecyl)-3,4-dihydroxybenzamide] | – | – | – | – | – | – | – | – | < 18 µM | – |
| O=C(NCCCc1ccccc1)c1ccc(O)c(O)c1 [compound 6, N--(ω-phenylpropyl)-3,4-dihydroxybenzamide] | – | – | – | – | – | – | – | – | 80 µM | – |
| CN1CCN(C(=O)c2ccc(O)c(O)c2)CC1 [compound 7, 3,4-dihydroxybenz-N--methylpiperazide] | – | – | – | – | – | – | – | – | 300 µM | – |
| COc1ccc2c(c1)c(CC(=O)O)c(C)n2C(=O)c1ccc(Cl)cc1 [indomethacin, reference compound] | – | – | – | – | – | – | – | – | – | autopsy findings, gastric [2]: hemorrhage from the gastric mucosa and formation of stomach ulcer were found; Rate of inhibition of granuloma formation (granuloma formation; 3 mg/kg/day oral): 39%; Weight of dried granuloma (granuloma formation; 3 mg/kg/day oral): 175 mg; Inhibition rate of exudation of PMN ([1]; after 3 hr, 3 mg/kg oral): 20.4%; Number of PMN in exudated liquid ([1]; after 3 hr, 3 mg/kg oral): 3.9 (number/mm^3) × 10^3; Inhibition rate of exudation of PMN ([1]; after 6 hr, 3 mg/kg oral): 22.0%; Number of PMN in exudated liquid ([1]; after 6 hr, 3 mg/kg oral): 17.0 (number/mm^3) × 10^3 |
| C[C@]12C=CC(=O)C=C1CC[C@@H]1[C@@H]2[C@@H](O)C[C@@]2(C)[C@H]1CC[C@]2(O)C(=O)CO [prednisolone, reference compound] | – | – | – | – | – | – | – | – | – | Increment of the volume of hind paw after 21 days of injection (I1) (adjuvant arthritis; 3 mg/kg/day group): 1.27 mL; Increment of the volume of hind paw after 36 days of injection (I2) (adjuvant arthritis; 3 mg/kg/day oral): 0.71 mL; Rate of inhibiting adjuvant arthritis (adjuvant arthritis; 3 mg/kg/day oral): 44%; autopsy findings, gastric [2]: hemorrhage from the gastric mucosa and formation of stomach ulcer were found; autopsy findings, thymus [2]: atrophy of the thymus was significantly found; Rate of inhibition of granuloma formation (granuloma formation; 3 mg/kg/day oral): 45%; Weight of dried granuloma (granuloma formation; 3 mg/kg/day oral): 158 mg |

Source: patent publication US4725598A, “Derivative of dihydroxybenzamide and a pharmaceutical composition having an anti-inflammatory activity” (priority 1983, dated 1988)
